Laboratory results taken from the supplement of paper PMC6045584.
± gives the standard deviation of the averaged measurements.

Columns and labels:
[1] = compound: COCC[n+]1c2c(n(Cc3cnccn3)c1C)C(=O)c1ccccc1C2=O [YM155]; assay: surviving fraction relative to DMSO-only wells; higher = less growth inhibition; conditions: exposure time: 5 days
Summary of the method: (§1)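 Surviving fraction is CellTiter-Glo luminescence divided by the median of wells given DMSO only. For this, log-phase tumour cell lines went into 384-well plates at 250–500 cells per well and, 24 hours later, into five days of continuous inhibitor exposure at 0.5, 1, 5, 10, 50, 100, 500 and 1000 nM. Lines were screened three times and retained only if replicate Pearson r >0.7 and median Z' >0.3.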

[2] = compound: C[C@]1(O)C[C@@H](c2nc(-c3ccc4ccc(-c5ccccc5)nc4c3)c3c(N)nccn32)C1 [OSI-906]; assay: as above; conditions: exposure time: 5 days
Summary of the method: as §1

Test System	surviving fraction ([1]; 0.5 nM)	surviving fraction ([1]; 1 nM)	surviving fraction ([1]; 5 nM)	surviving fraction ([1]; 10 nM)	surviving fraction ([1]; 50 nM)	surviving fraction ([1]; 100 nM)	surviving fraction ([1]; 500 nM)	surviving fraction ([1]; 1000 nM)	surviving fraction ([2]; 0.5 nM)	surviving fraction ([2]; 1 nM)	surviving fraction ([2]; 5 nM)	surviving fraction ([2]; 10 nM)	surviving fraction ([2]; 50 nM)	surviving fraction ([2]; 100 nM)	surviving fraction ([2]; 500 nM)	surviving fraction ([2]; 1000 nM)
HCC78 LUNG	0.7 ± 0.12	0.701 ± 0.23	0.457 ± 0.059	0.269 ± 0.062	0.0407 ± 0.0029	0.0247 ± 0.004	0.016	0.0187 ± 0.0025	0.712 ± 0.28	0.809 ± 0.2	0.954 ± 0.15	0.94 ± 0.15	0.801 ± 0.15	0.831 ± 0.13	0.764 ± 0.059	0.842 ± 0.12
HCC202 BREAST	1.19 ± 0.025	1.13 ± 0.014	1.34 ± 0.26	1.31 ± 0.22	0.411 ± 0.17	0.231 ± 0.037	0.0315 ± 0.00071	0.0335 ± 0.0021	0.918 ± 0.1	0.867 ± 0.2	0.966 ± 0.052	0.8315 ± 0.0035	1.1 ± 0.021	1.07 ± 0.15	0.862 ± 0.18	0.839 ± 0.18
HCC1395 BREAST	0.883 ± 0.23	1.07 ± 0.031	1.15 ± 0.035	1.01 ± 0.056	0.733 ± 0.11	0.427 ± 0.12	0.278 ± 0.079	0.239 ± 0.065	0.851 ± 0.028	0.962 ± 0.13	0.977 ± 0.095	0.949 ± 0.027	1.04 ± 0.014	1.12 ± 0.13	0.847 ± 0.14	0.986 ± 0.043
HCC1806 BREAST	1.04 ± 0.077	1.08 ± 0.15	0.308 ± 0.016	0.284 ± 0.01	0.064 ± 0.0027	0.05 ± 0.0044	0.024	0.0257 ± 0.0015	0.722 ± 0.032	0.721 ± 0.093	0.783 ± 0.11	0.822 ± 0.03	0.962 ± 0.077	1.07 ± 0.064	0.883 ± 0.04	0.826 ± 0.036
HCC1954 BREAST	1.08 ± 0.077	0.922 ± 0.12	0.987 ± 0.051	0.467 ± 0.079	0.0892 ± 0.02	0.035 ± 0.0064	0.0335 ± 0.00071	0.0333 ± 0.0053	0.33 ± 0.0085	0.37 ± 0.012	0.384 ± 0.046	0.475 ± 0.025	0.457 ± 0.063	0.384 ± 0.012	0.314 ± 0.04	0.35 ± 0.023
HMLE3 BREAST	0.974 ± 0.062	1.06 ± 0.15	0.425 ± 0.072	0.129 ± 0.02	0.0257 ± 0.00058	0.0227 ± 0.00058	0.018 ± 0.001	0.0213 ± 0.00058	0.808 ± 0.068	0.887 ± 0.071	0.931 ± 0.045	0.841 ± 0.0091	0.875 ± 0.047	0.901 ± 0.079	0.783 ± 0.035	0.724 ± 0.12
HMT3552 BREAST	0.983 ± 0.045	1.015 ± 0.009	1.06 ± 0.015	1.05 ± 0.056	0.17 ± 0.027	0.0797 ± 0.0055	0.0473 ± 0.0035	0.0537 ± 0.00058	0.916 ± 0.058	0.942 ± 0.017	0.988 ± 0.057	0.937 ± 0.064	1.05 ± 0.05	0.954 ± 0.023	0.828 ± 0.073	0.748 ± 0.035
HOS BONE	0.923 ± 0.0036	0.503 ± 0.017	0.075 ± 0.0078	0.0527 ± 0.0038	0.0267 ± 0.00058	0.0197 ± 0.00058	0.0193 ± 0.00058	0.0243 ± 0.00058	0.9287 ± 0.0055	0.9223 ± 0.0065	0.939 ± 0.019	0.911 ± 0.014	0.965 ± 0.02	0.963 ± 0.013	0.901 ± 0.013	0.88 ± 0.031
HS57T BREAST	0.919 ± 0.02	0.923 ± 0.056	0.729 ± 0.058	0.799 ± 0.1	0.287 ± 0.029	0.182 ± 0.013	0.0527 ± 0.0015	0.0473 ± 0.0047	0.862 ± 0.014	0.89 ± 0.068	0.869 ± 0.047	0.902 ± 0.052	0.934 ± 0.032	0.881 ± 0.023	0.915 ± 0.047	0.826 ± 0.082
HS578T BREAST	1.03 ± 0.14	1.06 ± 0.19	0.993 ± 0.19	1.06 ± 0.082	0.739 ± 0.18	0.809 ± 0.066	0.274 ± 0.067	0.154 ± 0.027	0.846 ± 0.12	0.968 ± 0.16	0.865 ± 0.12	0.846 ± 0.049	1.09 ± 0.13	0.931 ± 0.19	1.07 ± 0.073	1.15 ± 0.18
